In patent US20240051952A1, “HMOX1 INDUCERS” (Mitobridge Inc., priority 2019, published 2024):

Test system: Heme Oxygenase 1 (HO1)
Experiment: PD study, HMOX1 protein levels in mouse plasma and liver (ELISA)
Assay type: in vivo
Settings: HMOX1 protein fold induction vs time-matched vehicle, 50 mpk oral
Experimental: 9-10 week old male C57BL/6 mice were dosed orally with 50 mg/kg of vehicle or compound formulated in 5% w/v tween 80 and 0.5% methyl cellulose. At indicated time points (3 and 6 hours or or 4 and 8 hours post-dosing as shown in the results below), whole blood was collected, animal was sacrificed and liver was collected. Blood samples were transferred to vials containing 4 μL of 10% w/v EDTA, centrifuged at 6000 rpm for 8 in below 10° C. to obtain plasma. Samples were frozen and later processed for HMOX1 protein levels as indicated below:
HMOX 1 Protein Levels: Mouse Liver
Preparation of Homogenization/Lysis Buffer
The homogenization buffer was prepared according Table A.
Immediately prior to use, add DTT (ThermoScientific #R0861) to a final concentration of 5 mM and 100×Halt Protease & Phosphatase Inhibitor Cocktail (ThermoScientific #78440) to a final concentration of 1×.
Preparation of Mouse Liver Samples
Liver samples were crushed by mortar and pestle under freezing conditions. Pulverized tissue was transferred into pre-chilled bead ruptor OMNI tubes (OMNI International, Cat #19-628). 1 mL of homogenization buffer (+DTT and HALT) was added to pulverized tissue and tubes were placed on ice. Samples were loaded and run through bead ruptor at speed 5.64 m/s, for two 20 sec cycles with 10 sec dwell between cycles and samples were immediately returned to ice. All material was transferred to a new chilled 2 mL Eppendorf tube. Samples were centrifuged for 5 minutes at 2,000 rpm at 4° C. Supernatant was transferred to a fresh chilled 1.7 mL Eppendorf tube. Samples were centrifuged for 5 minutes at 2,000 rpm at 4° C. The supernatant, consisting of cytosol and microsomes, was transferred to a fresh chilled 1.7 mL Eppendorf tube. Samples were stored at −80° C. Microsome samples were quantitated using Pierce 660 Assay (ThermoFisher Cat #22660) with pre-diluted BSA standards (ThermoFisher Cat #23208) ranging from 125-2000 μg/mL. Each sample was diluted to 10ng/ul for an ELISA input of 0.5ug in 50ul.
Preparation of Assay Reagents
All assay reagents were provided in the Heme Oxygenase 1 (HO1) Mouse SimpleStep ELISA Kit (Abcam #ab204524). Prior to use, all reagents were equilibrated to room temperature. 1×Wash Buffer PT was prepared by diluting 10×Wash Buffer PT 1:10 with deionized water. Antibody cocktail was prepared by diluting the 10×Capture Antibody and 10×Detector Antibody to 1×in Antibody Diluent 5BI. Mouse heme oxygenase 1 protein standard was reconstituted using 500ul homogenization buffer (Table A), mixed and held at room temperature for 10 minutes prior to dilution. An eight point standard curve was generated by diluting the Stock Standard 1:2 for standard curve ranging from 10,000-156.3 pg/mL.
Heme Oxygenase 1 (HO1) Mouse SimpleStep ELISA
50ul of all samples and standards were added to appropriate wells in duplicate. 50ul of 1×Antibody Cocktail was added to each well. The plate was sealed with provided seal and incubated at room temperature on a plate shaker at 400 rpm. After one hour incubation, the Antibody Cocktail was aspirated and the wells were washed three times with 350ul 1×Wash Buffer PT, aspirating completely between each step. After the last wash was aspirated dry, 100ul TMB Substrate was added to each well and the plate was incubated in the dark at room temperature for 10 minutes on a plate shaker at 400 rpm. After the 10 minute incubation, 100ul of Stop Solution was added to each well. Plate was shaken at 400 rpm for 1 minute to mix. Softmax Pro 7.0.3 was used to read OD at 450 nm as well as for analysis.
Heme Oxygenase 1 Protein Levels in Mouse Plasma
All assay reagents were provided in the Heme Oxygenase 1 (HO1) Mouse SimpleStep ELISA Kit (Abcam #ab204524). 1×Wash Buffer PT was prepared by diluting 10×Wash Buffer PT 1:10 with deionized water. Antibody cocktail was prepared by diluting the 10×Capture Antibody and 10×Detector Antibody to 1×in Antibody Diluent 5BI. […]

Cn1c(Nc2nc3ccccc3o2)nc2cc(C(=O)NCCOCCO)ccc21 [Example 17, 2-(benzo[d]oxazol-2-ylamino)-N-(2-(2-hydroxyethoxy)ethyl)-1-methyl-1H-benzo[d]imidazole-5-carboxamide]
Liver Protein (4 h) (mouse liver, 4 hours (Study 702)): 3.3x*
Liver Protein (8 h) (mouse liver, 8 hours (Study 702)): 3.1x*
Plasma Protein (4 h) (mouse plasma, 4 hours (Study 702)): 1.7x*
Plasma Protein (8 h) (mouse plasma, 8 hours (Study 702)): 1.1x*
